Like-named read-outs stand apart in the source and are kept apart here.
Legend:
Type in all cases: biochemical
Casp6 = molecular target: T1, Casp6 (Homo sapiens, UniProt P55212, INS179NQTEKLDTNITEVD); test: Determination of inhibition mechanism and Ki (Michaelis-Menten, Lineweaver-Burk plots)
T1 construct: generating mainly large subunit with a linker (LS-L), small subunit (SS), and a minor amount of large subunit (LS); His (C); made in house; host or cells: E. coli BL21(DE3)pLysS
T1 sequence (P55212 24-193 limits assumed): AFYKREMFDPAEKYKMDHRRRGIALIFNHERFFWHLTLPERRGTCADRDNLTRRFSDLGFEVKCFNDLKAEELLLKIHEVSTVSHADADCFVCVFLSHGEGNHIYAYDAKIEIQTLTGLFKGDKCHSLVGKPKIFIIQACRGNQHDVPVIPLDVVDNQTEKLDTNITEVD
T1 sequence (P55212 194-293 limits assumed): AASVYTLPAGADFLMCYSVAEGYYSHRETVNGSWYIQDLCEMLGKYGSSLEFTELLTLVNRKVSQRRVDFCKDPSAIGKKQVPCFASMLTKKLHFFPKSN
Method: The inhibition of Casp6 activity with S10G and C13 was reversible (Fig. S5). To determine mode of inhibition, kinetic analyses were conducted on Casp6 using S10G and C13 (Fig. 4a). […] (Fig. 4b).
Compounds, S10G (2.5 µM, 4.2 µM, 10 µM), and C13 (5 µM, 14 µM, 50 µM), were added to 20 nM active site titrated Casp6 and enzyme activity was measured with eight different Ac-VEID-AFC substrate concentrations (5.0 μM–200 μM) using fluorescence-based Casp6 activity assay as above. The apparent KM and Vmax values were determined through nonlinear regression analysis of Michaelis-Menten plots (v vs. [S]) using GraphPad Prism 5. The inhibition mode was determined from the pattern of converging Lineweaver-Burk plots (1/v vs. 1/[S])[54]. The dissociation constant (Ki) for Casp6-inhibitor complex was determined from the x-axis intercept (which is equal to −Ki) in the plot of Lineweaver-Burk slopes vs. inhibitor concentration. Alternatively, inhibition model and Ki were determined by global fit of kinetic data to the competitive, noncompetitive, noncompetitive (mixed) or uncompetitive inhibition models using respective equations in GraphPad Prism 5.

[1] = molecular target: T2, recombinant active Casp6 (Casp6-WT) (Homo sapiens, UniProt P55212, INS179NQTEKLDTNITEVD); test: Fluorescence-based Ac-VEID-AFC cleavage assay (Casp6 activity, IC50 determination)
T2 construct: generating mainly large subunit with a linker (LS-L), small subunit (SS), and a minor amount of large subunit (LS); His (C); made in house; host or cells: E. coli BL21(DE3)pLysS
T2 sequence (P55212 24-193 limits assumed): T1 sequence (P55212 24-193 limits assumed)
T2 sequence (P55212 194-293 limits assumed): T1 sequence (P55212 194-293 limits assumed)
Method: (§1) To assess the potency of in silico hits, a fluorescence-based Ac-VEID-AFC cleavage assay was used to measure recombinant active Casp6 reaction rate in the absence or presence of 100 µM concentration of compounds. A 30% inhibition cut off was arbitrarily chosen for further investigation of putative inhibitors. […] AFC signal interference by compound intrinsic fluorescence was ruled out (Fig. S4). Casp6 inhibition was confirmed for seven compounds (C7, C13, C14, S2, S10, S11 and S13) using a colorimetric Ac-VEID-pNA cleavage assay (Table 2, Fig. S3).
Casp6 active sites were quantified using zVAD-FMK (N-benzyloxycarbonyl-Val-Ala-Asp-(O-methyl)-fluoromethylketone, MP Biomedicals, Santa Ana, CA, USA)[51],[64]. Casp6 activity was measured in Stennicke’s buffer (SB: 20 mM piperazine-N,N′-bis-(2-ethanesulfonic acid) pH 7.2, 100 mM NaCl, 10 mM DTT, 1 mM EDTA, 0.1% 3-[(3-cholamidopropyl)-dimethylammonio]-2-hydroxy-1-propanesulfonic acid, 10% sucrose)[65] using 40 µM Ac-VEID-AFC (Ac-Val-Glu-Ile-Asp-7-Amino-4-trifluoromethylcoumarin, Enzo Life Sciences, Farmingdale, NY, USA)[64] and 10-250 nM active site titrated Casp6. Reactions were initiated by Ac-VEID-AFC addition and followed for 20 min at 37 °C in a black clear bottom 96-well microplate (Costar, Corning, NY, USA) in Synergy H4 Hybrid instrument (BioTek, Winooski, VT, USA) with excitation/emission at 380/505 nm. Released AFC was calculated from AFC standard curve (0-25 µM). Casp6 VEIDase activity (released pmol AFC/min) was calculated from the initial linear reaction part. Ac-VEID-AFC hydrolysis initial velocities were measured with 10 nM active-site titrated Casp6 and […] Ac-VEID-AFC. Initial velocities v versus substrate concentration [S] were fit to a rectangular hyperbola using Michaelis-Menten equation in GraphPad Prism 5 (GraphPad Software, La Jolla, CA, USA).
(§2) In fluorescence-based Casp6 activity assay, 10 µM Ac-VEID-AFC was added to 20 nM Casp6 in SB with 100 μM compound and 1% dimethyl sulfoxide (DMSO), and reaction rate was measured for 20 min at 37 °C as above. Compound potency was calculated by normalising Ac-VEID-AFC cleavage rate to 1% DMSO control. In colorimetric Casp6 activity assay, 200 µM Ac-VEID-pNA (N-acetyl-Val-Glu-Ile-Asp-p-nitroanilide, Enzo Life Sciences) was added to 200 nM Casp6 in SB with 100 μM compound, and Ac-VEID-pNA cleavage rate was measured at 37 °C for 30 min in clear 96-well plate (Sartstedt, Nümbrecht, Germany) using Synergy H4 plate reader at 405 nm. Absorbance was converted to the released pNA amount based on a standard curve of 0–250 µM pNA. Cleavage rates were calculated from the linear assay phase and were normalised to 1% DMSO control. In Casp6-C163A cleavage assay, 0.5 ng/µl Casp6-WT was preincubated with 100 µM inhibitor, 5 µM Q-VD-OPh or 1% DMSO in SB (30 min, RT), followed by transfer on ice, addition of 0.5 µg/µl Casp6-C163A, and incubation (37 °C, 5, 10 and 15 min). Reactions were stopped by adding SDS-PAGE sample buffer (62.5 mM Tris pH 6.8, 2% SDS, 0.1 M DTT, 0.01% Bromphenol Blue, 10% glycerol) and heating (5 min, 95 °C). Samples (2 µl) were analysed on 15% SDS-PAGE gels, proteins were stained with Coomassie blue, and gels were de-stained with 10% acetic acid. The intensities of protein bands were quantified from scanned gels using ImageJ. The band intensity of Casp6-C163A without a prodomain was plotted against the time and the Casp6-C163A cleavage rates were calculated from the slopes of linear plots. The % activity of Casp6-WT in the presence of inhibitors was calculated relative to DMSO control.
IC50 values were determined against 20 nM Casp6 active sites in fluorescence-based Casp6 activity assay with 10 µM Ac-VEID-AFC and 1 nM-500 µM inhibitor. IC50 was calculated with GraphPad Prism 5 by a nonlinear regression fit for log inhibitor vs relative Casp6 activity (% DMSO control) using a Hill slope of – 1, and top and bottom constraints of 100 and 0, respectively.

recombinant active Casp6 = molecular target: T3, recombinant active Casp6 (Homo sapiens, UniProt P55212, INS179NQTEKLDTNITEVD); test: Colorimetric Ac-VEID-pNA cleavage assay; conditions: 100 µM compound, 200 µM Ac-VEID-pNA, 200 nM Casp6
T3 construct: generating mainly large subunit with a linker (LS-L), small subunit (SS), and a minor amount of large subunit (LS); His (C); made in house; host or cells: E. coli BL21(DE3)pLysS
T3 sequence (P55212 24-193 limits assumed): T1 sequence (P55212 24-193 limits assumed)
T3 sequence (P55212 194-293 limits assumed): T1 sequence (P55212 194-293 limits assumed)
Method: as §1, §2

- mode of inhibition (Casp6; Lineweaver-Burk plot pattern): noncompetitive inhibition
- Ki (Casp6; from plot of Lineweaver-Burk slopes vs inhibitor concentration, Casp6, Ac-VEID-AFC, read-out: Ki (dissociation constant)): 5.3 µM
- inhibition at 100 µM ([1]; 100 µM compound, 10 µM Ac-VEID-AFC, 20 nM Casp6, relative to 1% DMSO control): 57.1 ± 4.7%
- IC50 ([1]; Casp6-WT, compared with Casp6-K284A, read-out: IC50 of C13 for Casp6-WT (Fig. 4f)): 17.2 ± 3.6 µM
- IC50 ([1]; fluorescence assay, 20 nM Casp6 active sites, 10 µM Ac-VEID-AFC, read-out: IC50): 13.2 ± 2.5 µM
- potency for Casp6 of in-house synthesised compound compared to commercial compound ([1]; synthesised in the authors' laboratory vs commercial source): lower potency
- inhibition at 100 µM (recombinant active Casp6): 86.7%
SMILES: COC(=O)c1cc(CNC(=O)C2Cc3ccccc3O2)cc(NC(=O)c2ccco2)c1 (stereo not shown) [Compound C13]

— article PMC6445123 (Scientific Reports, 2019)
